The source of these data is patent publication US11376232B2, “Vidofludimus for use in the treatment or prevention of viral diseases” (Immunic AG, priority 2020, dated 2022).

Several values for one entry are separate records, joined by “and”; a condition that tells them apart may be missing. Identical values can stand only once. Counter-ions that a name gives are not always drawn. Like-named read-outs stand apart in the source and are kept apart here.

A short description of series [1]: in vitro. As to conditions: African green monkey.
A short description of series [2]: in vitro. As to conditions: African green monkey. This is another data set of the same source.
The nature of series [3]: Cytotoxicity in Vero 76 cells (Table 4). As to conditions: African green monkey.
The subject of another series is Vero 76. Kind of series: Cytotoxicity in Vero 76 cells (Table 4). As to conditions: Vero 76, 3 days post infection.
Series [4] is described as follows: in vitro. As to conditions: human.
For series [5], the system named is HCV sub genomic replicon of genotype 1b. As to conditions: cited from earlier work.
Series [6] deals with SARS-CoV-2. Kind of series: SARS-CoV-2 CPE inhibition (neutral red) in Vero 76 cells. It is filed as cell-based. As to conditions: Severe acute respiratory syndrome coronavirus 2, Vero 76, 120 h, read-out: EC50: 50% effective antiviral concentration.
Series [7] deals with SARS-CoV-2. It is filed as cell-based.
A short description of series [8]: Clinical tolerability of repeated daily dosing. The series is classed as in vivo, human. As to conditions: clinical trials.
Series [9] concerns SARS-CoV-2 MUC-IMB-1. Kind of series: microbe, parasite or virus in culture. It is filed as cell-based. As to conditions: Severe acute respiratory syndrome coronavirus 2, Caco-2.
The target of the next series is mDHODH (Mus musculus, UniProt O35435). Kind of series: mDHODH inhibition, in vitro protein. It is filed as biochemical.
mDHODH, sequence (O35435 whole entry): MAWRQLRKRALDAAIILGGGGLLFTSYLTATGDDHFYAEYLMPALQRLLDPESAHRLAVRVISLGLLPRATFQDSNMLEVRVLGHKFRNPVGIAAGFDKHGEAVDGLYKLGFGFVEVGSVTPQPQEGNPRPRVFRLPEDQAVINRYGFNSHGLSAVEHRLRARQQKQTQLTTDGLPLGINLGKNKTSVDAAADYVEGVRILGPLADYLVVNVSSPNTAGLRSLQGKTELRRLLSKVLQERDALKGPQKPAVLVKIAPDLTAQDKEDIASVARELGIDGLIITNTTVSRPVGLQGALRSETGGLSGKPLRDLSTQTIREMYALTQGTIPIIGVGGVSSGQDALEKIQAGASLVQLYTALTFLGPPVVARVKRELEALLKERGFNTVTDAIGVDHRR
The test system of series [10] is SARS-CoV-2 MUC-IMB-1. Kind of series: microbe, parasite or virus in culture. It is filed as cell-based. As to conditions: Severe acute respiratory syndrome coronavirus 2, Vero.
Series [11] can be described thus: Cytotoxicity in uninfected Vero 76 cells (neutral red). The series is classed as cell-based. As to conditions: African green monkey, Vero 76, day 5, neutral red, read-out: CC50: 50% cytotoxic concentration of compound without virus added.
Series [12] has as its system hyperactivated immune cells. Put plainly: T-cell mediated cytokine production of hyperactivated immune cells. The series is classed as cell-based.
The conditions of series [13]: human, in vivo.
The test system of the next series is Lassa fever Arena virus. As to conditions: Plaque reduction, virus protein expression; A549 and Vero models; cited from earlier work.
Series [14] concerns SARS-CoV-2 MUC-IMB-1. Put plainly: microbe, parasite or virus in culture. The series is classed as cell-based. As to conditions: Severe acute respiratory syndrome coronavirus 2, Vero 76.
A short description of series [15]: Cytotoxicity on fibroblasts.
In series [16] the test system is SARS-CoV-2 infection (COVID-19). Kind of series: Phase 2 placebo-controlled trial in hospitalized patients with moderate COVID-19. As to conditions: human, in vivo.
Series [17] concerns HIV-191US005 (CCR5-tropic, Subtype B). As to conditions: cited from earlier work.
Series [18] in a line: Cytotoxicity on HepG2 cells. As to conditions: human.
For another series, the system named is SARS-CoV-2 USA_WA1/2020. Put plainly: microbe, parasite or virus in culture. It is filed as cell-based. As to conditions: Severe acute respiratory syndrome coronavirus 2, Vero 76.
Series [19] concerns SARS-CoV-2. The series is classed as cell-based. As to conditions: CaCo-2 supernatants on Vero E6 monolayers, treatment setting.
For series [20], the system named is SARS-CoV-2 infection (COVID-19).
The target of a further series is EGFR (Homo sapiens, UniProt P00533). Put plainly: Off-target activity on EGFR. As to conditions: in contrast to leflunomide and teriflunomide.
EGFR, sequence (P00533 25-1210, species assumed): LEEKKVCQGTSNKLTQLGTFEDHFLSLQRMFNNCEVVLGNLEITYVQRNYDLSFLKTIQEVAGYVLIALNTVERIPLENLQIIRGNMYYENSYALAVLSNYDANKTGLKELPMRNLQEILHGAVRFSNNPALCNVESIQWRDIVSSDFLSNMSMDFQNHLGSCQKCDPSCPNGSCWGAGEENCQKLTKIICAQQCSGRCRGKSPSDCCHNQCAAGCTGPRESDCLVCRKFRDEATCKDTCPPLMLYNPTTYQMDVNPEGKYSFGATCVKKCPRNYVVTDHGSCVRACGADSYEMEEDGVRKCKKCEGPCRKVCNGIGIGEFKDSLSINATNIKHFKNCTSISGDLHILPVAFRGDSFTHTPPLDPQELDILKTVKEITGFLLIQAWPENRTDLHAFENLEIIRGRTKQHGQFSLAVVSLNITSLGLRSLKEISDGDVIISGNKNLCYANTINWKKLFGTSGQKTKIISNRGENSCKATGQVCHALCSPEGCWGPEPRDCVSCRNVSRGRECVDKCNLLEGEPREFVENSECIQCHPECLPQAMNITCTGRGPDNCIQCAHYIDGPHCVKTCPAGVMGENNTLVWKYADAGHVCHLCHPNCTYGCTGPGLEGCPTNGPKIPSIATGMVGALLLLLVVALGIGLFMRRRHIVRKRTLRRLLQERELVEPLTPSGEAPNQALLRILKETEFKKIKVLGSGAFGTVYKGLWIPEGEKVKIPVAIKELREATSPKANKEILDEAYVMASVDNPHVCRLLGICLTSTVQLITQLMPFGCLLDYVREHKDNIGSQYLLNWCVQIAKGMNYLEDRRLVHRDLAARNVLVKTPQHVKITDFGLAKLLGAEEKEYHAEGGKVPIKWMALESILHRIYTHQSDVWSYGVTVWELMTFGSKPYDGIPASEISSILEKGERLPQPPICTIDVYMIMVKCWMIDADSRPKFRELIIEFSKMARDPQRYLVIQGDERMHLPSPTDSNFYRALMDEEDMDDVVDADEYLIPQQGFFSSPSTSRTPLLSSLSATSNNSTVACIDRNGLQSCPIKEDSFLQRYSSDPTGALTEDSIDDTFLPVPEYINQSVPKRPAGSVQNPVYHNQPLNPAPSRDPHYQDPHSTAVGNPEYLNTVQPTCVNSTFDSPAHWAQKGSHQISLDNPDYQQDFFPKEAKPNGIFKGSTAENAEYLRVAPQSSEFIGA
For series [21] the following is noted: human, in vivo. The source holds these as a separate data set.
The next series concerns Human T-cells. Put plainly: Proliferation assay of human T-cells (PHA-stimulated PBMCs, BrdU). The series is classed as cell-based. As to conditions: T-cell, PHA 20 μg/ml, 48 hours, BrdU ELISA. Here is the method: Human peripheral blood mononuclear cells (PBMCs) were obtained from healthy volunteers and transferred to RPMI1640 cell culture medium containing 10% dialyzed fetal calf serum. 80.000 cells per well were pipetted into a 96-well plate and phytohemagglutinin (PHA) was added in phosphate buffered saline to a final concentration of 20 μg/ml to stimulate T-cell proliferation. Vidofludimus was added in dimethyl sulfoxide (DMSO, final concentration: 0.1 vol %) to final concentrations ranging from 20 nM to 50 μM. After incubation for 48 hours, cell proliferation was quantified using the “cell proliferation ELISA BrdU” (Roche) according to the manufacturer's instructions. Half maximal inhibition (IC50) was calculated using a 4-parameter sigmoidal curve fit.

Another series relates to bone marrow. Put plainly: Animal studies, effects on bone marrow. It is filed as in vivo. As to conditions: animals treated with large doses.
The target of the next series is T1, Auroroa-A kinases (Homo sapiens, UniProt O14965).
T1 sequence (O14965 1-403): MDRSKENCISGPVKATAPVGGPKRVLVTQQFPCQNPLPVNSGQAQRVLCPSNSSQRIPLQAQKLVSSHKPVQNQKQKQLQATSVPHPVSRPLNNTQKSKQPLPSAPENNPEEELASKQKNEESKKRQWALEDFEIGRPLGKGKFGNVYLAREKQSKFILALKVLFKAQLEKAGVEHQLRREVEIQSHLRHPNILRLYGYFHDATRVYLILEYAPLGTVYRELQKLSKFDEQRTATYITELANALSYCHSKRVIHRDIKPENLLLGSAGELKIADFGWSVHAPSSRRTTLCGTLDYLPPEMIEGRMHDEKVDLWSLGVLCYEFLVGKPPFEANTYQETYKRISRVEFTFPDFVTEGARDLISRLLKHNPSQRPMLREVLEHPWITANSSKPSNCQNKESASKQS
Kind of series: Off-target activity on Aurora-A kinase. As to conditions: in contrast to leflunomide and teriflunomide.

The conditions of series [22]: in vivo; cited from earlier work.

Regarding `COc1cccc(-c2ccc(NC(=O)C3=C(C(=O)O)CCC3)c(F)c2)c1` [IMU-838, 1-cyclopentene-1-carboxylic acid, 2-(((3-fluoro-3′-methoxy(1,1′-biphenyl)-4-yl)amino)carbonyl)-, calcium salt (2:1)], the CC50 is 88 µM in the series “in vitro [1]”, greater than 100 µM in “in vitro [2]” and greater than 60 µM in the series “in vitro [4]”. The same molecule returned a CC90 at 3 days in series [3] greater than 100 µM. Further, the “drug concentrations with no cytotoxicity observed” value in the series with Vero 76 is “up to 100 μM”. In “in vitro [4]”, this molecule yielded a CC90 greater than 60 µM. The EC50 in series [5] (Huh7 cells, Luc activity readout, read-out: median ED50 HCV replicon) was 4.6 µM; in the series with SARS-CoV-2 [6], 6.1 µM; in the series with SARS-CoV-2 MUC-IMB-1 [9], 7.5 to 15 µM; in the series on SARS-CoV-2 MUC-IMB-1 [10] it was 6.8 µM; with SARS-CoV-2 MUC-IMB-1 [14], 10 µM; in series [17] (human PBMCs, reverse transcriptase activity and p24, read-out: median effective dose (ED50) HIV), roughly 2 µM. In addition, the IC50 is 4.6 µM in [5] (Replicon, luciferase); 10 µM on mDHODH; 2.8 µM in the series with Lassa fever Arena virus; greater than 30 µM in series [15]; 2.2 µM in [17] (RT (reverse transcriptase)); 2 µM in series [17] (p24). Moreover, the IC50 in series [18] was greater than 50 µM. For the same molecule, the Virus titer in the series with SARS-CoV-2 [7] (IMU-838 1 μM alone) amounted to 5.7 CCID50/ml; with SARS-CoV-2 [7] (IMU-838 5 μM alone) it was 5.7 CCID50/ml; in the series with SARS-CoV-2 [7] (IMU-838 10 μM alone), 4.5 CCID50/ml. Further, the “reduction of virus titer” value in the series on SARS-CoV-2 [7] (all other concentrations (5, 1 μM), alone) was “did not reduce virus titer”. Besides, the “tolerated repeated daily dosing” value in series [8] is reported as “up to 50 mg”. Moreover, the concentration for an effect of 90% (EC90) with SARS-CoV-2 MUC-IMB-1 [9] is 15 to 30 µM; in the series on SARS-CoV-2 USA_WA1/2020 it was 6.2 ± 1.9 µM. Also, in series [11], the CC50 at 5 days was 7.9 µM. In addition, the “T-cell mediated cytokine production” value in series [12] is “able to block”. Moreover, in series [13], the “plasma levels achieved in the blood of treated patients” value fell in the range of 10 to 30 µM. Also, the “hematological effects of COVID19” value in series [16] is on record as “did not intensify”. For the same molecule, the “rate of infections and infestations and rate of liver events vs placebo” value in series [16] was “did not increase”. Further, the “rate of serious adverse events and adverse events leading to treatment discontinuation vs placebo” value in series [16] was “not increased”. The “reduction of viral plaques” value with SARS-CoV-2 [19] is 58 fold. Moreover, the “COVID-19 related adverse events with increased intensity” value in series [20] (IMU-838 treated patients) is on record as 7.1%. Besides, the “reduction of C-reactive protein (CRP) vs placebo” value in series [20] (blood) is “more effective reduction”. For the same molecule, the “proportion of patients reaching clinical recovery” value in series [20] (day 7, FAS, 2×22.5 mg + standard-of-care) is given as 18.5%; in [20] (day 28, FAS), 71.3%. The “proportion of patients reaching clinical improvement (as assessed by the investigators)” value in series [20] (day 14, FAS) came out at 42.7%; in [20] (day 28, FAS), 90.9%. For the same molecule, the “anti-viral effect by viral titers” value in series [20] (day 14 and day 28) is “anti-viral effect of IMU-838 on SARS-CoV-2 was observed”. The “patients reaching WHO score improvement by two points” value in series [20] (elderly patients (65 years or older), day 14, mFAS) was 36.4%. Further, in series [20] (human, in vivo), the “acceleration of 75% probability to reach clinical improvement (centrally calculated) vs placebo” value is 2.9 days. For the same molecule, in [20] (human, in vivo), the “acceleration of 75% probability to reach clinical improvement (investigator assessment) vs placebo” value was 3.8 days and 4.8 days. Further, the “reduction of D-dimer vs placebo” value in series [20] (human, in vivo) is reported as “more effective reduction”. Also, in [20] (human, in vivo), the “shortening of third patient quartile for duration of hospitalization vs placebo” value turned out to be 3.4 days. In series [20] (mFAS), the “time to clinical improvement vs placebo” value is given as “shorter”. For the same molecule, in series [20] (within the first 8 days after onset of symptoms, mFAS), the “clinical improvement (centrally calculated) when used early” value is recorded as “observed to be better”.

Take `CCC(CC)COC(=O)[C@H](C)N[P@](=O)(OC[C@H]1O[C@@](C#N)(c2ccc3c(N)ncnn23)[C@H](O)[C@@H]1O)Oc1ccccc1` [Remdesivir, remdesivir, reference compound]: the results for the Virus titer in the series with SARS-CoV-2 [7] (remdesivir 1 μM alone), in the series on SARS-CoV-2 [7] (remdesivir 5 μM alone) and in the series on SARS-CoV-2 [7] (remdesivir 10 μM alone) were 5.0 CCID50/ml, 1.7 CCID50/ml and less than 0.67 CCID50/ml, respectively.

As to `COc1cccc(-c2ccc(NC(=O)C3=C(C(=O)O)CCC3)c(F)c2)c1` [Vidofludimus, 2-((3-fluoro-3′-methoxy-[1,1′-biphenyl]-4-yl)carbamoyl)cyclopent-1-enecarboxylic acid], the “off-target activity on EGFR” value on EGFR is recorded as “does not hit”. In series [21], this molecule came in with a blood plasma half-life of 30 h. This molecule yielded an IC50 with Human T-cells of 4.1 µM. The “effects on bone marrow” value with bone marrow is given as “lack detrimental effects on bone marrow”. On Auroroa-A kinases, the “off-target activity on Aurora-A kinases” value is reported as “does not hit”.

For the molecule `Cc1oncc1C(=O)Nc1ccc(C(F)(F)F)cc1` [leflunomide], in [22], the blood plasma half-life is 384 to 456 h and the “dosing time to achieve therapeutic trough levels” value was “up to 2 months”.
